Reference: patent US4716109A, “Immunoassay” (Boots-Celltech Diagnostics Limited, priority 1983, dated 1987)
pKi: −log10 of the molar value. Numbered stars: 1 amine (or outer) side, 2 acyl side, 3 side chain; on linkers, the order of the positions; unused ones are H or OH. Square brackets hold non-standard residues; d marks the D form. Peptide text beside a SMILES is read from it. * marks the point of attachment. X3 = CC(=O)[C@H]1CC[C@H]2[C@@H]3CCC4=CC(=O)CC[C@]4(C)[C@H]3[C@H](OCC(=O)*)C[C@]12C; X1 = CC(=O)C1CCC2C3CCC4=CC(=O)CCC4(C)C3C(OC3OC(C(=O)*)C(O)C(O)C3O)CC12C; Sta = CC(C)C[C@H](N)[C@@H](O)CC(=O)O; X2 = CC(C)CC(N[*:1])C(O)CC(=O)[*:2]

Columns and labels:
[1] = system: Polyclonal antiserum to progesterone (18/3); format: binding; settings: radioimmunoassay, polyclonal antiserum 18/3
Text: (§1) Polyclonal antisera to progesterone were obtained from the Milk Marketing Board, Veterinary Laboratories, Cleeve House, Lower Wick, Worcester, England and from Guildhay Antisera, Division of Clinical Biochemistry, Department of Biochemistry, University of Surrey, Guildford, Surrey, England. The antiserum from the Milk Marketing Board had been raised against the immunogen progesterone-11α -hemisuccinyl-bovine serum albumin and the Guildhay antiserum raised against progesterone-11α -hemisuccinyl-ovalbumin.
(§2) A radioimmunoassay employing tritiated progesterone and dextran coated charcoal separation of bound and free progesterone was used to assess the immunoreactivity of progesterone derivatives and progesterone-inhibitor conjugates with the monoclonal and polyclonal antisera, by the method of R. B. Heap, R. J. Holdsworth, J. E. Gadsby, J. A. Laing and D. E. Walters, Brit. Vet. J. 1976, 132, 445-464.

[2] = system: Monoclonal progesterone antibody 11P12; format: binding; settings: radioimmunoassay
Text: Monoclonal progesterone antibody was obtained from Dr. Wang of the Imperial Cancer Research Fund Laboratories, Lincolns Inn, London, England. It had been raised against the immunogen progesterone-11 -hemisuccinyl-bovine serum albumin according to the method of V. E. Fantl, D. Y. Wang and R. E. Knyba, J. Steroid Biochem, 1982, 17, 125-130. The monoclonal antibody of choice for use in the specific assay described below is designated 11P12 in the above mentioned publication.
as §2

[3] = molecular target: T1, chymosin milk-clotting activity (Bos taurus, UniProt P00794); test: Milk-clotting assay in microtiter plates; format: biochemical, calf
T1 construct: purchased Sigma Chemical Co. Ltd., or from recombinant prochymosin (E. coli) supplied by Celltech Ltd; host or cells: calf enzyme, or E. coli for the recombinant prochymosin
T1 sequence (P00794 59-381): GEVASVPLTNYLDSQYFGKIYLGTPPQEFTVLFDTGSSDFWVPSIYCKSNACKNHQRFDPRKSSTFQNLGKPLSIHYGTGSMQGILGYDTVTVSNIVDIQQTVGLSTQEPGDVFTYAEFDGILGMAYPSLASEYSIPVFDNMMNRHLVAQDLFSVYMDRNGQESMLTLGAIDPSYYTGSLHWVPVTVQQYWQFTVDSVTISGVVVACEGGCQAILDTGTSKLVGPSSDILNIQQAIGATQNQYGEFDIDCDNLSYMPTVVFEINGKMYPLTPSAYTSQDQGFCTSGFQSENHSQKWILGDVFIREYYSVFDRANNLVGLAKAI
Procedure: Milk-clotting assays were carried out in the wells of microtiter plates. In each assay, after a suitable reaction time, the microtiter plate was inverted. Where clotting occurred, the clots remained in the wells of the plate, and where there was no clotting, the contents of the wells were decanted.
The general assay procedure was as follows:
20 μl of assay buffer containing 0.2% bovine serum albumin was pipetted into the wells of a microtiter plate. This was followed by 25 μl of assay buffer alone, or assay buffer containing the desired concentration of progesterone-inhibitor conjugate followed by 25 μl of assay buffer alone, or assay buffer containing the desired concentration of progesterone antibody. Then 30 μl of assay buffer containing the desired concentration of chymosin was added. This was followed by 100 μl of a milk substrate solution. The microtiter plate containing the assay mixture was placed in an incubator at 37° C. for 1 hour. At the end of this time the plate was inverted over a sink and tapped very lightly a few times, and then placed inverted on some tissue paper. The presence of clots was readily observed and either scored on a microtiter plate diagram or alternatively the inverted plate was photocopied against a dark background.
Dilutions of chymosin in assay buffer were prepared at 1/1000, 1/1100, 1/1210, 1/1331, 1/1464, 1/1611, 1/1772, 1/1949. 30 μl of each diluted enzyme solution was used in each microtiter well. A solution of the progesterone-inhibitor designated P4SP2, at a concentration of 40 pmol/ml was prepared; 25 μl (1 pmol) being used in each microtiter well. Dilutions of sheep polyclonal antiserum HPS 53-IIb (supplied by Guildhay Antisera) were prepared at 1/50, 1/100 and 1/200; 25 ul of each dilution being used in each microtiter well.
A 1/50 dilution of antibody to progesterone (HPS53 IIb--Guildhay antisera) was used, together with a fixed concentration of progesterone-inhibitor conjugate P4SP2 (100 pmol/ml). The final concentration of conjugate was 1 pmol/well. Progesterone was dissolved in assay buffer at a concentration of 0.5 nmol/ml, to give a final concentration of 7.5 pmol/well. Incubation mixtures containing 0.571 ml of assay buffer containing 0.2% BSA, 0.714 ml of dilute antibody, 0.429 ml of progesterone in assay buffer and 0.286 ml of inhibitor conjugate were prepared. Control incubates were also prepared in which antibody, progesterone, or both were replaced by equivalent volumes of assay buffer. A similar series of incubation mixtures in which progesterone-inhibitor conjugate was replaced by assay buffer was also prepared. These mixtures were incubated at 4° C. for 2 hours. At the end of the incubation, 70 μl of incubate was transferred to each well in duplicate rows on the microtitre plate. Dilution of a 1 mg/ml solution of chymosin in assay buffer were prepared as follows: 1/1210 1/1331, 1/1464, 1/1611, 1/1772, 1/1949, 1/2144, 1/2358, 1/2594, 1/2835, 1/3138, 1/3452. 30 μl of each dilution was added to each well in a column of the microtitre plates. These dilutions gave a final concentration of 0.71, 0.64, 0.58, 0.53, 0.48, 0.44, 0.40, 0.36, 0.33, 0.30, 0.27 and 0.25 pmol/well. 100 ul of milk substrate was added to each well and the plates were incubated for one hour at 37° C. before checking for clotting. In the absence of progesterone, antibody and progesterone-inhibitor conjugate, the limiting concentration of chymosin necessary for clotting is 0.36 pmol/well. […]

[4] = system: Polyclonal antiserum to progesterone HPS 53IIb; test: Radioimmunoassay for immunoreactivity with polyclonal antiserum HPS 53IIb; format: binding, sheep
Text: as §1, §2
Dilutions of chymosin in assay buffer were prepared at 1/1000, 1/1100, 1/1210, 1/1331, 1/1464, 1/1611, 1/1772, 1/1949. 30 μl of each diluted enzyme solution was used in each microtiter well. A solution of the progesterone-inhibitor designated P4SP2, at a concentration of 40 pmol/ml was prepared; 25 μl (1 pmol) being used in each microtiter well. […]

[5] = system: Polyclonal antiserum to progesterone HPS 645IIc; test: Radioimmunoassay for immunoreactivity with polyclonal antiserum HPS 645IIc; format: binding
Text: as §1, §2

[6] = molecular target: T2, Chymosin (Bos taurus, UniProt P00794); test: Enzyme inhibition with chromogenic peptide substrate; format: biochemical, calf; settings: pH 6.0
T2 construct: purchased Sigma Chemical Co. Ltd., or from recombinant prochymosin (E. coli) supplied by Celltech Ltd; host or cells: calf enzyme, or E. coli for the recombinant prochymosin
T2 sequence (P00794 59-381): as above
Text: Enzyme inhibition data was obtained using synthetic peptide substrates containing a chromophoric nitrophenylalanine residue in the position of the scissile bond so that hydroysis can be followed spectrophotometrically. Hydrolysis was followed at 300 nm and the substrate can be used at any pH value (usually between 2-6) at which the enzyme is active.

[7] = molecular target: Endothia Parasitica Protease (Cryphonectria parasitica, UniProt P11838); test: as above; format: biochemical
Endothia Parasitica Protease, sequence (P11838 90-419): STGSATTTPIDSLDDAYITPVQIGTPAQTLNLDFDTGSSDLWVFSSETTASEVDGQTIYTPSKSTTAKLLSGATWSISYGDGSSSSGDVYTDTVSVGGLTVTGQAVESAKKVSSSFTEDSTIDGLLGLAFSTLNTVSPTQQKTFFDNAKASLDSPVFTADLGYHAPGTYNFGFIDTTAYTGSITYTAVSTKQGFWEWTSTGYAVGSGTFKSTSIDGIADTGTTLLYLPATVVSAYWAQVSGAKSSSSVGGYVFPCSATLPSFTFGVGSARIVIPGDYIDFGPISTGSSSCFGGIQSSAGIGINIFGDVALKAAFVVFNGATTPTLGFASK
Text: Enzyme inhibition data was obtained using synthetic peptide substrates containing a chromophoric nitrophenylalanine residue in the position of the scissile bond so that hydroysis can be followed spectrophotometrically. Hydrolysis was followed at 300 nm and the substrate can be used at any pH value (usually between 2-6) at which the enzyme is active. Kinetic parameters for the hydrolysis of a chromogenic peptide substrate by different types of mammalian aspartic proteinases have been reported J. Kay, M. J. Valler and B. M. Dunn, Naturally-occurring inhibitors of Aspartic Proteinases in Proteinase Inhibitors; N. Katunuma, H. Umezawa and H. Holzer Eds., 1983 Springer-Verlag, Berlin (in press).

[8] = Endothia Parasitica Protease, pH 3.1

| Molecule | Immunoreactivity Polyclonal (18/3) [1] | Immunoreactivity Monoclonal 11P12 [2] | pKi [6] | pKi ([7]; Endothia, pH 6.0) | also measured |
| --- | --- | --- | --- | --- | --- |
| CC(=O)[C@H]1CC[C@H]2[C@@H]3CCC4=CC(=O)CC[C@]4(C)[C@H]3[C@H](OC3O[C@H](C(=O)O)[C@@H](O)[C@H](O)[C@H]3O)C[C@]12C (stereo partly drawn) [I, Progesterone11α-glucuronide, reference compound] | 92.1% | 151% | – | – | – |
| CC(=O)[C@H]1CC[C@H]2[C@@H]3CCC4=CC(=O)CC[C@]4(C)[C@H]3[C@H](OCC(=O)O)C[C@]12C [II, Progesterone11α-carboxymethylether, reference compound] | – | 77.4% | – | – | – |
| CC(=O)[C@H]1CC[C@H]2[C@@H]3CCC4=CC(=O)CC[C@]4(C)[C@H]3CC[C@]12C [Progesterone, reference compound] | – | – | – | – | limiting concentration of chymosin necessary for clotting ([3]; progesterone alone, 7.5 pmol/well, no conjugate, compared with control 0.36 pmol/well): remains the same |
| CC[C@H](C)[C@H](NC(=O)[C@H](C)NC(=O)C[C@H](O)[C@H](CC(C)C)NC(=O)[C@H](CO)NC(=O)[C@H](CC(C)C)NC(=O)CO[C@@H]1C[C@]2(C)[C@@H](C(C)=O)CC[C@H]2[C@@H]2CCC3=CC(=O)CC[C@]3(C)[C@H]21)C(=O)N1CCC[C@H]1C(=O)N1CCC[C@H]1C(=O)N[C@@H](CCCCN)C(=O)N[C@@H](CCCCN)C(=O)O [VII] (X3-LS[Sta]AIPPKK-OH) | 33.6% | 17.1% | 8.17 | 7.59 | Immunoreactivity Polyclonal (HPS 53IIb) [4]: 42.1%; Immunoreactivity Polyclonal (HPS 645IIc) [5]: 17.4% |
| CCC(C)C(NC(=O)C(C)NC(=O)CC(O)C(CC(C)C)NC(=O)C(CO)NC(=O)C(CC(C)C)NC(=O)C1OC(OC2CC3(C)C(C(C)=O)CCC3C3CCC4=CC(=O)CCC4(C)C23)C(O)C(O)C1O)C(=O)N1CCCC1C(=O)N1CCCC1C(=O)NC(CCCCN)C(=O)NC(CCCCN)C(=O)O (stereo not shown) [VI] (X1-LS[X2]AIPPKK-OH; configuration not given here) | 16.4% | 3.8% | 7.70 | 6.33 | Immunoreactivity Polyclonal (HPS 53IIb) [4]: 34%; milk clotting with conjugate in the presence of antibody ([3]; 1 pmol/well conjugate plus 1/50 antibody HPS53 IIb (FIG. 3)): clotting is restored; milk clotting with conjugate in the presence of antibody and free progesterone ([3]; 1 pmol/well conjugate, 1/50 antibody HPS53 IIb, progesterone 7.5 pmol/well (FIG. 3)): antibody restoration of clotting activity was impaired; modulation by antibody of the conjugate's inhibition of chymosin milk clotting activity ([3]; 1 pmol/well conjugate, antiserum HPS 53-IIb at 1/50, 1/100, 1/200, chymosin dilutions 1/1000-1/1949 (FIG. 1)): can be modulated by the addition of antibody; chymosin required to give a visible clot (limiting concentration of chymosin necessary for clotting) ([3]; 1 pmol/well of the inhibitor conjugate, no antibody, no progesterone, 1 h 37° C., control without additions 0.36 pmol/well): 0.44 pmol/well |
| CCC(C)C(NC(=O)C(C)NC(=O)CC(O)C(CC(C)C)NC(=O)C(CO)NC(=O)C(CC(C)C)NC(=O)C(Cc1c[nH]cn1)NC(=O)C1OC(OC2CC3(C)C(C(C)=O)CCC3C3CCC4=CC(=O)CCC4(C)C23)C(O)C(O)C1O)C(=O)N1CCCC1C(=O)N1CCCC1C(=O)NC(CCCCN)C(=O)NC(CCCCN)C(=O)O (stereo not shown) [V] (X1-HLS[X2]AIPPKK-OH; configuration not given here) | 9.5% | 31.8% | 7.28 | 7.40 | – |
| Achisleuserstualaileproprolyslys [IV] | – | – | – | – | pKi [7, 8]: 8.22 |
| Hisleuserphestatalaileproprolyslys [III] | – | – | – | – | pKi [7, 8]: 8.00 |
